Data on one molecule can be found in US20250298027A1, “METHOD OF EVALUATING SMALL MOLECULE DISTRIBUTION USING TELLUROPHENE ANALOGUES” (THE GOVERNING COUNCIL OF THE UNIVERSITY OF TORONTO, priority 2022, published 2025).

Data set [1] concerns pH2AX^Ser139. The data set is described as follows: pH2AX immunohistochemistry of PANC-1 xenograft tumour sections. Format: in vivo, mice. The settings on record: 20 mg/kg IP, 2 hours. The protocol:
PANC-1 xenograft-bearing mice were injected with either teniposide or the Te-teniposide analogue 1 IP. A dose of 20 mg/kg was selected based on literature reports detailing teniposide drug delivery strategies. After 2 hours, mice were sacrificed and tissues of interest were harvested, formalin fixed, and paraffin embedded. Tissue sections (5 um) were cut and mounted onto microscopy slides. The expression of pH2AX^Ser139 levels were first assessed by immunohistochemistry. Serial sections derived from PANC-1 xenograft tumours were stained with primary antibody and subsequently HRP-conjugated secondary antibody for standard brown staining. DSBs are indicated by large, discrete pH2AX^Ser139 foci. Representative images of immunostained slides show increased pH2AX^Ser139 levels in treated mice relative to saline injected control with clear, punctate staining (FIG. 7).

Data set [2] relates to pH2AX^Ser139. The data set is described as follows: pH2AX Western blotting in PANC-1 cells. Format: cell-based, Human. The settings on record: 1 μM, 24 and 48 hours. How it is done: Next, the ability of 1 to induce DSBs—the dominant type of DNA damage resulting from Top2 inhibition was investigated. In response to DSBs, a cascade of DNA repair mechanisms are triggered, including-phosphorylation of the histone variant H2AX at Ser139. Thus, the level of pH2AX^Ser139 serves as a reliable marker for Top2-linked DSBs. Western blotting was used to measure pH2AX^Ser139 in PANC-1 cells treated with 1 μM of either 1 or teniposide for 24 and 48 hours.
pH2AX Blotting: PANC-1 cells (0.5×10^6) cells were seeded in 60 mm plastic petri dishes (Corning Inc. NY) and incubated for 18 h. The spent medium is removed and replaced with fresh medium containing drug ([…]) and incubated for either 24 or 48h. Control cells were treated with DMSO only. The cells were then lysed with RIPA buffer (25 mM Tris·HCl PH 7.6, 150 mM NaCl, 1% NP-40, 1% sodium deoxycholate, 0.1% SDS) (ThermoFisher Scientific) containing Halt Protease Inhibitor Cocktail (Cat. No. 78410) and Halt Phosphatase Inhibitor Cocktail (Cat. No. 78420) as per manufacturer's protocol. […] Antibodies (Abcam, Cambridge, MA) targeting the following proteins were used H2AX (S139) (ab11174, polyclonal) and β-tubulin (ab6046, polyclonal).
(In general: Immunoblotting shows a protein as a band on a membrane.)

Another data set concerns PANC-1 cells. The data set is described as follows: alamarBlue viability assay in PANC-1 cells. Format: cell-based, Human. Particulars: maximum dose of 25 μM, 72 hours exposure. How it is done:
Similarly, PANC1 cells were characterized for later in vivo experiments. Using an alamarBlue viability assay and a proliferative assay, PANC-1 cells were incubated with 1 or teniposide.
AlamarBlue assay: PANC-1 cells were seeded into black, clear-bottom 96-well assay plates (Corning; CLS3603) and incubated for 24 hours. The medium was replaced with […] of teniposide or compound 1. After 72 hours exposure to drug, alamarBlue (Thermo Fisher Scientific; DAL1100) cell viability reagent was added and incubated for 4 hours at 37° C. Fluorescence intensity was measured using an excitation wavelength of 560 nm and an emission of 590 nm. Cell viability was calculated by normalizing to an untreated control.
On the technique in general: The colour change of resazurin is a common sign of viable cells or microbes.

Data set [3] can be described thus: IMC analysis of tellurium in PANC-1 xenograft tumour sections.
From the text: For IMC™ analysis, the initial objective was to visualize tellurium signal distribution in tumour sections and subsequently measure relative tellurium content in individual cells. Tumour sections were dewaxed, rehydrated and washed. Slides then were stained with Ir-intercalator to visualize cell nuclei, and then imaged by IMC™. The ^125Te isotope was visualised. […] Without wishing to be bound by theory, it was hypothesized that the processing of the FFPE tissues contributes to loss of tellurium signal as the teniposide interaction with the cells is largely non-covalent, thus the multiple wash steps required for dewaxing (xylene and ethanol washes) might have removed bound 1. To reduce the number of tissue processing steps, snap frozen samples prepared from the same tumours were sectioned and analyzed by IMC™.
To determine the corresponding concentration of Te present in the sample a set of standards containing increasing concentrations of Te were analyzed by IMC™. Based on the total counts present in each standard Te spot a count/Te atom constant was calculated (FIG. 8E).
Generation of murine PANC-1 xenograft model: All 6-week-old female NOD SCID mice (Charles River (Wilmington, MA) were maintained under specific pathogen-free (SPF) conditions at the Princess Margaret Cancer Centre (PMCC) facility. All animal experiments in this study were performed in accordance with the Animal Research Committee guidelines of the University Health Network institution. The subcutaneous PANC-1 xenograft mice were generated as described previously in Telox studies. The vehicle was prepared as follows: 30 mg benzyl alcohol, 60 mg N,N-dimethylacetamide, 500 mg purified Cremophor EL (Kolliphor EL), and 2.1 mL dehydrated alcohol were combined in a vial. The solution was topped with distilled water for a final volume of 5 mL. The pH of the clear solution is adjusted to pH ˜5 with maleic acid. For injections, drug was diluted with vehicle for a final concentration of 10 mg/mL and administered at 20 mg/kg by I.P. The mice were maintained in three groups; group 1 mice were injected with teniposide, group 2 received 1, and group 3 with normal saline. After 2 hours, mice were scarified, and tumors were extracted. […]
For the next data set, the system named is HL-60 cells. The data set is described as follows: Competitive binding / cell labelling by mass cytometry (CyTOF) in HL-60 cells. Format: cell-based. How it is done: To determine if cellular labelling with 1 was dependent on the presence of Top2-DNA binding sites a competitive binding MC experiment was carried out using Teniposide. HL-60 cells were treated with teniposide (10 μM) for two hours to saturate intracellular Top2-DNA ternary complexes with an unlabelled ligand, next 1 (2 or 10 μM) was introduced into the cell media and the suspension was gently mixed. After two hours, cells were harvested and washed three times with PBS. Cells were then fixed and permeabilized, followed by DNA staining with Ir-intercalator. Cell pellets were analyzed by MC for ^130Te content (FIG. 6).
Additionally, co-incubation experiments were conducted where HL-60 cells were treated with a cocktail of 1 (2 μM) and either 2, 10, or 20 μM teniposide (FIG. 6B). […] Without wishing to be bound by theory, it is hypothesized that the lack of competitive labelling observed in these experiments may be due to a combination of inhibition of Top2 and a considerable degree of non-specific binding with other cellular components. Several reports have documented the non-specific accumulation of etoposide and teniposide via oxidation catalyzed by cytochrome P450-dependent monooxygenases, peroxidases and tyrosinase enzymes. […] It is also plausible these reactive species modify other intracellular proteins, thus contributing to drug accumulation inside cells, but in a promiscuous and irreversible manner. […] In this case, the non-specific binding may dominate the target binding of teniposide, and likely its analogue Te-teniposide 1.
CYTOF® labelling: For pre-saturation experiment, 3×10^6 HL-60 cells (5×10^5 cells/mL) were incubated with appropriate teniposide concentration for 2 hours at 37° C. in a humidified atmosphere of 5% CO2 in air. Compound 1 was pipetted into the cell suspension and gently mixed. Cells were further incubated for 2 hours and then centrifuged for 6 min at 300×g, and the media was aspirated. For controls, HL-60 cells were treated with teniposide or compound 1 for 4 hours consecutively. […] Samples were then injected into the CYTOF® Helios™ and analyzed.

SMILES strings stand for the structures.

For the molecule `COc1cc([C@@H]2c3cc4c(cc3[C@@H](OC3OC5COC(c6ccc[te]6)OC5C(O)C3O)[C@H]3COC(=O)C23)OCO4)cc(OC)c1O` (stereo partly shown) [Compound 1, Tellurium-labelled teniposide], in the data set with pH2AX^Ser139 [1], the “pH2AX^Ser139 levels in tumour sections relative to saline injected control” value is “increased”. Moreover, the “levels of pH2AX^Ser139 relative to DMSO-treated control” value in the data set with pH2AX^Ser139 [2] is reported as “Increased levels”. Besides, the “loss of cell viability in PANC-1 cells” value with PANC-1 cells is given as “almost complete loss of cell viability”. For the same molecule, the “^125Te signal in snap frozen tumour sections by IMC” value in data set [3] (20 mg/kg IP, 2 h before sacrifice, frozen sections) is on record as “signals were observed”. The “Te signal in FFPE tumour sections by IMC” value in data set [3] (20 mg/kg IP, 2 hours, FFPE sections, ^125Te) is listed as “no Te signal above background”. Also, the “Te signal in samples collected at later timepoints after dosing” value in data set [3] (frozen sections, later timepoints) is reported as “not observed”. In addition, in data set [3] (frozen tumour sections, at the time of analysis, no precise value), the “average concentration in the tissue” value is given as “low tens”. In addition, the “competition for Top2 in co-incubation” value with HL-60 cells (1 (2 μM) with 2, 10 or 20 μM teniposide) was “no competition”. Moreover, the “cell labelling (^130Te) by MC” value with HL-60 cells (2 and 10 μM) is on record as “readily detected”. Moreover, in the data set with HL-60 cells (teniposide 10 μM for two hours, then 1 at 2 or 10 μM for two hours), the “reduction of ^130Te signal in cells pretreated with unlabeled teniposide” value was “not observed”.
